From US9611262B2, “Substituted 2-azabicycles and their use as orexin receptor modulators” (JANSSEN PHARMACEUTICA NV, priority 2014, dated 2017)

target: human orexin 2 receptor (Homo sapiens (Human), UniProt O43614); experiment: Human orexin 2 receptor radioligand binding ([3H]-EMPA competition); conditions: HEK293 stably expressing human orexin 2 receptor; 2 nM [3H]-EMPA; averages of 2-20 runs; read-out: hOX2 Ki
Experimental: The in vitro affinity of the compounds of the invention for the rat/human orexin 1 and human orexin 2 receptors was determined by competitive radioligand binding using [^3H](1-(5-(2-fluoro-phenyl)-2-methyl-thiazol-4-yl)-1-((S)-2-(5-phenyl-(1,3,4)oxadiazol-2-ylmethyl)-pyrrolidin-1-yl)-methanone) (Langmead et al., 2004) and [^3H]EMPA (n-ethyl-2[96-methoxy-pyridin-3-yl)-(toluene-2-sulfonyl)-amino]-N-pyridin-3-ylmethyl acetamide), respectively (Langmead et al., 2004, British Journal of Pharmacology 141:340-346; Malherbe et al., 2004, British Journal of Pharmacology 156:1326-41).
Data are analyzed using pc-Sandy macro and graphed on Graphpad Prism 5. For analysis, each concentration point is averaged from triplicate values and the averaged values are plotted on Graphpad Prism. The IC50 was determined by applying the following equation (GraphPad Prism 5.0, San Diego) for one site competition where X=log (concentration) and Y=specific binding. Top denotes the total [^3H]— (1-(5-(2-fluoro-phenyl)-2-methyl-thiazol-4-yl)-1-((S)-2-(5-phenyl-(1,3,4)oxadiazol-2-ylmethyl)-pyrrolidin-1-yl)-methanone) binding, bottom denotes the nonspecific [^3H]— (1-(5-(2-fluoro-phenyl)-2-methyl-thiazol-4-yl)-1-((S)-2-(5-phenyl-(1,3,4)oxadiazol-2-ylmethyl)-pyrrolidin-1-yl)-methanone) binding. Graphpad Prism calculates Ki value from IC50 and the pre-determined Kd values for [^3H]— (1-(5-(2-fluoro-phenyl)-2-methyl-thiazol-4-yl)-1-((S)-2-(5-phenyl-(1,3,4)oxadiazol-2-ylmethyl)-pyrrolidin-1-yl)-methanone) and [^3H]-EMPA. The Ki for each compound is then uploaded into 3DX. Each run comprises individual compounds in triplicate. The data in Table 1 and Table 2 represent averages from between 2-20 runs
Human Orexin 2 Receptor Radioligand Binding Studies
HEK293 stably expressing human orexin 2 receptor (Genebank accession number NM_001526) were grown to confluency in DMEM (Hyclone, cat # SH30022), 10% FBS, 1× Pen/Strep, 1× NaPyruvate, 10 mM HEPES, 600 μg/ml G418 media on 150 cm^2 tissue culture plates, washed with 5 mM EDTA in PBS (HyClone Dulbecco's Phosphate Buffered Saline 1× with Calcium and Magnesium, Cat # SH30264.01, hereafter referred to simply as PBS) and scraped into 50 ml tubes. After centrifugation (2K×G, 5 min at 4° C.), the supernatant was aspirated and the pellets frozen and stored at −80° C. Cells were resuspended in PBS in the presence of 1 tablet of protease inhibitor cocktail (Roche, Cat. #11836145001) per 50 mL. […] Compounds were solubilized in 100% DMSO (Acros Organics, Cat. #61042-1000) and tested over a range of 7 concentration (from 0.1 nM to 10 μM). The final concentration of DMSO in the reactions is equal to or less than 0.1%. Total and nonspecific binding was determined in the absence and presence of 10 μM almorexant. The total volume of each reaction is 200 μL (20 μL of diluted compounds, 80 μL of [^3H]-EMPA diluted in PBS and 100 μL of the cell suspension). Reactions were run for 60 min at room temperature and terminated by filtration through GF/C filter plates (PerkinElmer, Cat. #6005174) presoaked in 0.3% polyethylenimine using the cell harvester (PerkinElmer Filtermate). The plates were washed 3 times by aspirating 30 ml PBS through the plates. Plates were dried in 55° C. oven for 60 min, scintillation fluid was added, and the radioactivity was counted on a Topcount (Packard).

Sequence of human orexin 2 receptor (O43614 whole entry): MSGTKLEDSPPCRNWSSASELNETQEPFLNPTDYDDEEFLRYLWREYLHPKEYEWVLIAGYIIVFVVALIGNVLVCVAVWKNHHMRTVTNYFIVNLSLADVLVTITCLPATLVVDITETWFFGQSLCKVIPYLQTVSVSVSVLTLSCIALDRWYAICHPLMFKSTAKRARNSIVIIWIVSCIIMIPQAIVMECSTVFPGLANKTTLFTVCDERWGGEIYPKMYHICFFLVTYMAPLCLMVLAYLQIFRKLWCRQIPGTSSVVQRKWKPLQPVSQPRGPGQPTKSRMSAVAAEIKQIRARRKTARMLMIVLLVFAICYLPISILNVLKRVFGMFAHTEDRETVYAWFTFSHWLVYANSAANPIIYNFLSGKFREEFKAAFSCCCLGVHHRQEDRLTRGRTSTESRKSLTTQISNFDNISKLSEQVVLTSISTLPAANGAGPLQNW

| Compound | Ki [nM] |
| --- | --- |
| CC1C2CC(Nc3cnc(C(F)(F)F)cn3)C(C2)N1C(=O)c1ccccc1-n1nccn1 (racemic) [Example 5, (R/S)-(2-(2H-1,2,3-triazol-2-yl)phenyl)(3-methyl-6-((5-(trifluoromethyl)pyrazin-2-yl)amino)-2-azabicyclo[2.2.1]heptan-2-yl)methanone] | 278 |
| CCOc1ccc(C)nc1C(=O)N1C(C)C2CC(Oc3ccc(C(F)(F)F)cn3)C1C2 (racemic) [Example 13, (R/S)-(3-ethoxy-6-methylpyridin-2-yl)(3-methyl-6-((5-(trifluoromethyl)pyridin-2-yl)oxy)-2-azabicyclo[2.2.1]heptan-2-yl)methanone] | 1600 |
| CC1C2CC(Oc3ccc(C(F)(F)F)cn3)C(C2)N1C(=O)c1cc(F)ccc1-c1ncccn1 (racemic) [Example 18, (R/S)-(5-fluoro-2-(pyrimidin-2-yl)phenyl)(−3-methyl-6-((5-(trifluoromethyl)pyridin-2-yl)oxy)-2-azabicyclo[2.2.1]heptan-2-yl)methanone] | 1600 |
| CC1C2CC(Oc3ccc(C(F)(F)F)cn3)C(C2)N1C(=O)c1cccc(F)c1-c1ncc(F)cn1 (racemic) [Example 20, (R/S)-(3-fluoro-2-(5-fluoropyrimidin-2-yl)phenyl)(3-methyl-6-((5-(trifluoromethyl)pyridin-2-yl)oxy)-2-azabicyclo[2.2.1]heptan-2-yl)methanone] | 3100 |
| Cc1cnc(C(=O)N2C(C)C3CC(Nc4ccc(C(F)(F)F)cn4)C2C3)c(-n2nccn2)c1 (racemic) [Example 61, (R/S)-(5-methyl-3-(2H-1,2,3-triazol-2-yl)pyridin-2-yl)(3-methyl-6-((5-(trifluoromethyl)pyridin-2-yl)amino)-2-azabicyclo[2.2.1]heptan-2-yl)methanone] | 585 |
| CC1C2CC(Nc3cnc(C(F)(F)F)cn3)C(C2)N1C(=O)c1ccccc1-n1nccn1 (racemic) [Example 68, (R/S)-(2-(2H-1,2,3-triazol-2-yl)phenyl)(3-methyl-6-((5-(trifluoromethyl)pyrazin-2-yl)amino)-2-azabicyclo[2.2.1]heptan-2-yl)methanone] | 625 |
| CC(C)CC1C2CC(Oc3ccc(C(F)(F)F)cn3)C(C2)N1C(=O)c1cccc(F)c1-c1ncccn1 (racemic) [Example 211, (R/S)-(3-fluoro-2-pyrimidin-2-yl-phenyl)-[2-isobutyl-5-[[5-(trifluoromethyl)-2-pyridyl]oxy]-3-azabicyclo[2.2.1]heptan-3-yl]methanone] | 3300 |
| CCC1C2CC(Oc3ccc(C(F)(F)F)cn3)C(C2)N1C(=O)c1ccccc1-c1ncccn1 (racemic) [Example 214, (R/S)-[2-ethyl-5-[[5-(trifluoromethyl)-2-pyridyl]oxy]-3-azabicyclo[2.2.1]heptan-3-yl]-(2-pyrimidin-2-ylphenyl)methanone] | 316 |
| C[C@@H]1[C@H]2C[C@@H](Oc3ccc(C(F)(F)F)cn3)[C@H](C2)N1C(=O)c1ccccc1-c1ncccn1 (relative stereo) [Example 33, ((1S*,3R*,4R*,6R*)-3-methyl-6-((5-(trifluoromethyl)pyridin-2-yl)oxy)-2-azabicyclo[2.2.1]heptan-2-yl)(2-(pyrimidin-2-yl)phenyl)methanone] | 602 |
| Cc1cnc(C(=O)N2[C@H](C)[C@H]3C[C@@H](Oc4cnc(C(F)(F)F)cn4)[C@@H]2C3)c(-n2nccn2)c1 (relative stereo) [Example 48, (5-methyl-3-(2H-1,2,3-triazol-2-yl)pyridin-2-yl)((1S*,3R*,4R*,6R*)-3-methyl-6-((5-(trifluoromethyl)pyrazin-2-yl)oxy)-2-azabicyclo[2.2.1]heptan-2-yl)methanone] | > 10000 |
| Cc1ccc(C(=O)N2[C@H](C)[C@H]3C[C@@H](Oc4cnc(C(F)(F)F)cn4)[C@@H]2C3)c(-n2nccn2)n1 (relative stereo) [Example 49, (6-methyl-2-(2H-1,2,3-triazol-2-yl)pyridin-3-yl)((1S*,3R*,4R*,6R*)-3-methyl-6-((5-(trifluoromethyl)pyrazin-2-yl)oxy)-2-azabicyclo[2.2.1]heptan-2-yl)methanone] | > 10000 |
| C[C@@H]1[C@H]2C[C@@H](Oc3cnc(C(F)(F)F)cn3)[C@H](C2)N1C(=O)c1ccc(F)cc1-n1nccn1 (relative stereo) [Example 53, (4-fluoro-2-(2H-1,2,3-triazol-2-yl)phenyl)((1S*,3R*,4R*,6R*)-3-methyl-6-((5-(trifluoromethyl)pyrazin-2-yl)oxy)-2-azabicyclo[2.2.1]heptan-2-yl)methanone] | 7600 |
| CCOc1ccc(C)nc1C(=O)N1[C@H](C)[C@H]2C[C@@H](Oc3cnc(C(F)(F)F)cn3)[C@@H]1C2 (relative stereo) [Example 56, (3-ethoxy-6-methylpyridin-2-yl)((1S*,3R*,4R*,6R*)-3-methyl-6-((5-(trifluoromethyl)pyrazin-2-yl)oxy)-2-azabicyclo[2.2.1]heptan-2-yl)methanone] | 7000 |

The remaining lines, values ahead:

| Ki [nM] | Compound |
| --- | --- |
| 3700 | CC1C2CC(Oc3ccc(C(F)(F)F)cn3)C(C2)N1C(=O)c1ncccc1-n1nccn1 (racemic) [Example 9, (R/S)-(3-(2H-1,2,3-triazol-2-yl)pyridin-2-yl)(3-methyl-6-((5-(trifluoromethyl)pyridin-2-yl)oxy)-2-azabicyclo[2.2.1]heptan-2-yl)methanone] |
| 2100 | Cc1cnc(C(=O)N2C(C)C3CC(Oc4ccc(C(F)(F)F)cn4)C2C3)c(-n2nccn2)c1 (racemic) [Example 11, (R/S)-(5-methyl-3-(2H-1,2,3-triazol-2-yl)pyridin-2-yl)(3-methyl-6-((5-(trifluoromethyl)pyridin-2-yl)oxy)-2-azabicyclo[2.2.1]heptan-2-yl)methanone] |
| 2000 | Cc1ccc(-n2nccn2)c(C(=O)N2C(CF)C3CC(Oc4ccc(C(F)(F)F)cn4)C2C3)n1 (racemic) [Example 70] |
| > 10000 | Cc1cnc(-n2nccn2)c(C(=O)N2C(CF)C3CC(Oc4ccc(C(F)(F)F)cn4)C2C3)c1 (racemic) [Example 72] |
| 2000 | O=C(c1ccccc1-n1nccn1)N1C(CF)C2CC(Oc3ccc(C(F)(F)F)cn3)C1C2 (racemic) [Example 73, (R/S)-(2-(2H-1,2,3-triazol-2-yl)phenyl)(3-(fluoromethyl)-6-((5-(trifluoromethyl)pyridin-2-yl)oxy)-2-azabicyclo[2.2.1]heptan-2-yl)methanone] |
| 1500 | Cc1ccc(-n2nccn2)c(C(=O)N2C(CC(C)C)C3CC(Oc4ccc(C(F)(F)F)cn4)C2C3)n1 (racemic) [Example 210, (R/S)-[2-isobutyl-5-[[5-(trifluoromethyl)-2-pyridyl]oxy]-3-azabicyclo[2.2.1]heptan-3-yl]-[6-methyl-3-(triazol-2-yl)-2-pyridyl]methanone] |
| 2400 | C[C@@H]1[C@H]2C[C@@H](Oc3ccc(C(F)(F)F)cn3)[C@H](C2)N1C(=O)c1ncccc1-n1nccn1 (relative stereo) [Example 23, (3-(2H-1,2,3-triazol-2-yl)pyridin-2-yl)((1S*,3R*,4R*,6R*)-3-methyl-6-((5-(trifluoromethyl)pyridin-2-yl)oxy)-2-azabicyclo[2.2.1]heptan-2-yl)methanone] |
| 689 | C[C@@H]1[C@H]2C[C@@H](Oc3ccc(C(F)(F)F)cn3)[C@H](C2)N1C(=O)c1c(F)cccc1-n1nccn1 (relative stereo) [Example 30, (2-fluoro-6-(2H-1,2,3-triazol-2-yl)phenyl)((1S*,3R*,4R*,6R*)-3-methyl-6-((5-(trifluoromethyl)pyridin-2-yl)oxy)-2-azabicyclo[2.2.1]heptan-2-yl)methanone] |
